In assay [1] the target is T1, glycine transporter-1 (GlyT-1) (Homo sapiens, UniProt P48067).
T1 construct: JAR cells (ATCC#HTB-144), which endogenously express GlyT-1; host or cells: JAR human choriocarcinoma cells
T1 sequence (P48067 1-706): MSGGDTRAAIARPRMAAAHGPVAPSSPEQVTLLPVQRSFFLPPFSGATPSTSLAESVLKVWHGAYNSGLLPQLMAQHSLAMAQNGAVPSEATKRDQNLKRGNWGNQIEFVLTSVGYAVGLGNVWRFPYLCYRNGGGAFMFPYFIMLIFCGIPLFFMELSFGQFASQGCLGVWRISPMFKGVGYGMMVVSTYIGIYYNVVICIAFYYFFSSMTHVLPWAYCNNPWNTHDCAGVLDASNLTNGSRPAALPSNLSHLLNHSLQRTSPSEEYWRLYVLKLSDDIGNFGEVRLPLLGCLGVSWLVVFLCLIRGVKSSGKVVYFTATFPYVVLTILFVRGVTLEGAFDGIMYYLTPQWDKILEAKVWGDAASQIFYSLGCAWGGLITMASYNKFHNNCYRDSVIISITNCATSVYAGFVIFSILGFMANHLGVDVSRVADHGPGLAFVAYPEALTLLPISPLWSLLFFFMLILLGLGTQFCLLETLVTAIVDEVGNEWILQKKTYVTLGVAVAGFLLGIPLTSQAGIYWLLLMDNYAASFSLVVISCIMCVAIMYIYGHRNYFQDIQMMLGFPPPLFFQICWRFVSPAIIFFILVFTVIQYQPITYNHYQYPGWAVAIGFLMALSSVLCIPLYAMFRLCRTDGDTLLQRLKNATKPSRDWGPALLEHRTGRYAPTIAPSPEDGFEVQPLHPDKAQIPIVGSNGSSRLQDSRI
The assay is described as follows: [14C]glycine uptake assay in JAR cells endogenously expressing GlyT-1 (scintillation proximity). It is filed as cell-based. The following applies: JAR cells, [14C]glycine 5 μM, 3 hour incubation; read-out: GlyT-1 IC50. Put shortly: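 Human choriocarcinoma JAR cells (endogenous GlyT-1) attached overnight, then pre-incubated 10 min at room temperature with compound in pH 7.4 Hepes uptake buffer containing 5 mM alanine and 0.75% DMSO. Uptake of 5 μM [14C]glycine over 3 h at 37 °C read by scintillation proximity; IC50 from four-parameter fit of nine-point curves.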
(Scintillation proximity formats need no separation of bound from free tracer.)

Assay [2] addresses T2, glycine transporter-2 (GlyT-2) (Homo sapiens, UniProt Q9Y345).
T2 construct: expressed in transfected cells
T2 sequence (Q9Y345 1-797): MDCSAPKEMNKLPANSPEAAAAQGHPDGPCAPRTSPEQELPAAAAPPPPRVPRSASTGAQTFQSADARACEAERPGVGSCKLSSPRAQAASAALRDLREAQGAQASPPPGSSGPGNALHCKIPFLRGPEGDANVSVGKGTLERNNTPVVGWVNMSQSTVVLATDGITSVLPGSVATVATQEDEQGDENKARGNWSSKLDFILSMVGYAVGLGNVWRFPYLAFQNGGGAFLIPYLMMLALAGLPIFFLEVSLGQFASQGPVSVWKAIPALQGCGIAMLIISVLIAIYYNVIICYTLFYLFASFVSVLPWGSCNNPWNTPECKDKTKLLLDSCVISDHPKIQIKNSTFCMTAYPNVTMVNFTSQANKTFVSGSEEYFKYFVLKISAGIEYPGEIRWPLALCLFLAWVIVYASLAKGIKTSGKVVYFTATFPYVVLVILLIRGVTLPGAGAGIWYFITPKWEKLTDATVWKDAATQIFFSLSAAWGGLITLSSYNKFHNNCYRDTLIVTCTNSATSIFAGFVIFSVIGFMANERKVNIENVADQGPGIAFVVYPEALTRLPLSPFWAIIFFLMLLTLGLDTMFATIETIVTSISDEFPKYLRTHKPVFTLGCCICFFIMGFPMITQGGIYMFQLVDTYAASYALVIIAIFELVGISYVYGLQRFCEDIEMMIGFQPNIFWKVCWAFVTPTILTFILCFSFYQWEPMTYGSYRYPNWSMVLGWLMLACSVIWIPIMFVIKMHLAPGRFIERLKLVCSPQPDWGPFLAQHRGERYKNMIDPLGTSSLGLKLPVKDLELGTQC
Put plainly: [14C]glycine uptake assay in HEK-GlyT-2 transfected cells. The class given is cell-based. The following applies: HEK-GlyT-2 cells.

From patent publication US9045445B2, “Glycine transporter-1 inhibitors, methods of making them, and uses thereof” (Albany Molecular Research, Inc., priority 2010, dated 2015) come the findings set out here.

Structures can show the parent of a compound that is named as a salt.

Broadly, the IC50 is the concentration at which inhibition is half-maximal. As to `CCCS(=O)(=O)N1CCN(C2(CNC(=O)c3cc(F)c(Cl)cc3Cl)CCC(F)(F)CC2)CC1` [compound 263, 2,4-Dichloro-N-((4,4-difluoro-1-(4-(propylsulfonyl)piperazin-1-yl)cyclohexyl)methyl)-5-fluorobenzamide Hydrochloride], the IC50 in assay [1] is 23 nM; in assay [2], over 75000 nM.

As for `CCCS(=O)(=O)N1CCN(C2(CNC(=O)c3ccc(F)cc3OC)CCCCC2)CC1` [compound 46, 4-Fluoro-2-methoxy-N-((1-(4-(propyl-sulfonyl)piperazin-1-yl)cyclohexyl)methyl) benzamide Hydrochloride], the half-maximal inhibitory concentration (IC50) was 357 nM in assay [1] and over 75000 nM in assay [2].

In the case of `Cn1cnc(S(=O)(=O)N2CCN(C3(CNC(=O)c4ccccc4OC(F)(F)F)CCC(F)(F)CC3)CC2)c1` [compound 161, N-((4,4-difluoro-1-(4-(1-methyl-1H-imidazol-4-ylsulfonyl)piperazin-1-yl)cyclohexyl)methyl)-2-(trifluoromethoxy) benzamide Hydrochloride], the concentration for half-maximal inhibition (IC50) in assay [1] is 1 nM; in assay [2] it was over 75000 nM.

Take `CCCS(=O)(=O)N1CCN(C2(CNC(=O)c3c(C)cc(Cl)cc3C)CCC(F)(F)CC2)CC1` [compound 266, 4-Chloro-N-((4,4-difluoro-1-(4-(propylsulfonyl)piperazin-1-yl)cyclohexyl)methyl)-2,6-dimethylbenzamide Hydrochloride]: the IC50 in assay [1] was 11 nM; in assay [2] it was over 75000 nM.

On to `CCCS(=O)(=O)N1CCN(C2(CNC(=O)c3c(C(F)(F)F)ccc(Cl)c3F)CCCCC2)CC1` [compound 5, 3-Chloro-2-fluoro-N-((1-(4-(propylsulfonyl)piperazin-1-yl)cyclohexyl)methyl)-6-(trifluoromethyl)benzamide Hydrochloride], for which the IC50 is 43 nM in assay [1] and at least 75000 nM in assay [2].

With `Cn1cc(S(=O)(=O)N2CCN(C3(CNC(=O)c4c(F)cccc4F)CCOCC3)CC2)nn1` [compound 128, 2,6-Difluoro-N-((4-(4-(1-methyl-1H-1,2,3-triazol-4-ylsulfonyl)piperazin-1-yl)tetrahydro-2H-pyran-4-yl)methyl)benzamide Hydrochloride], the IC50 is 83 nM in assay [1] and over 75000 nM in assay [2].

On to “2-Chloro-N-((4,4-difluoro- 1-(3-(propylsulfonyl)-3,8- diazabicyclo[3.2.1]octan- 8-yl)cyclohexyl)methyl)- 4-(trifluoromethyl) benzamide Hydrochloride [compound 261]”, for which the IC50 in assay [1] was 311 nM; in assay [2] it was over 75000 nM.

`Cn1cc(S(=O)(=O)N2CCN(C3(CNC(=O)c4cc(F)c(Cl)cc4Cl)CCC(F)(F)CC3)CC2)nn1` [compound 231, 2,4-Dichloro-N-((4,4-difluoro-1-(4-(1-methyl-1H-1,2,3-triazol-4-ylsulfonyl)piperazin-1-yl)cyclohexyl)methyl)-5-fluorobenzamide Hydrochloride]: the IC50 in assay [1] is 1 nM; in assay [2], over 75000 nM.

For the molecule `Cn1cc(S(=O)(=O)N2CCN(C3(CNC(=O)c4ccc(Cl)cc4Cl)CCCC3)CC2)nn1` [compound 110, 2,4-Dichloro-N-((1-(4-(1-methyl-1H-1,2,3-triazol-4-ylsulfonyl)piperazin-1-yl)cyclopentyl)methyl) benzamide Hydrochloride], the IC50 is 27 nM in assay [1] and over 75000 nM in assay [2].

As for `Cn1cnc(S(=O)(=O)N2CCN(C3(CNC(=O)c4ccc(Cl)cc4Cl)CCCC3)CC2)c1` [compound 105, Hydrochloride], the IC50 was 102 nM in assay [1] and over 75000 nM in assay [2].

Take `Cn1cnc(S(=O)(=O)N2CCN(C3(CNC(=O)c4ccc(F)cc4Cl)CCC(F)(F)CC3)CC2)c1` [compound 166, 2-Chloro-N-((4,4-difluoro-1-(4-(1-methyl-1H-imidazol-4-ylsulfonyl)piperazin-1-yl)cyclohexyl)methyl)-4-fluorobenzamide Hydrochloride]: the IC50 in assay [1] was 5 nM; in assay [2], over 75000 nM.

For the molecule `COc1cc(F)cc(C)c1C(=O)NCC1(N2CCN(S(=O)(=O)c3cn(C)nn3)CC2)CCCC1` [compound 112, 4-Fluoro-2-methoxy-6-methyl-N-((1-(4-(1-methyl-1H-1,2,3-triazol-4-ylsulfonyl)piperazin-1-yl)cyclopentyl)methyl) benzamide Hydrochloride], the IC50 in assay [1] is 14 nM; in assay [2], over 75000 nM.

On to `CCCS(=O)(=O)N1CCN(C2(CNC(=O)c3c(F)cccc3F)CCCCCC2)CC1` [compound 66, 2,6-Difluoro-N-((1-(4-(propylsulfonyl)piperazin-1-yl)cycloheptyl)methyl) benzamide Hydrochloride], for which the figures for the IC50 in assay [1] and in assay [2] were 29 nM and over 45000 nM, respectively.

Regarding `CCCS(=O)(=O)N1CCN(C2(CNC(=O)c3ccc(Cl)cc3Cl)CCCCCC2)CC1` [compound 60, 2,4-Dichloro-N-((1-(4-(propylsulfonyl)piperazin-1-yl)cycloheptyl)methyl) benzamide Hydrochloride], the IC50 in assay [1] was 11 nM; in assay [2], over 75000 nM.

For the molecule `CCCS(=O)(=O)N1CCN(C2(CNC(=O)c3ccccc3OC(F)(F)F)CCC(F)(F)CC2)CC1` [compound 141, N-((4,4-Difluoro-1-(4-(propylsulfonyl)piperazin-1-yl)cyclohexyl)methyl)-2-(trifluoromethoxy) benzamide Hydrochloride], the IC50 in assay [1] is 48 nM; in assay [2], over 75000 nM.

In the case of `CCCS(=O)(=O)N1CCN(C2(CNC(=O)c3ccccc3C)CCCCC2)CC1` [compound 42, 2-Methyl-N-((1-(4-(propylsulfonyl)piperazin-1-yl)cyclohexyl)methyl) benzamide Hydrochloride], the IC50 was 118 nM in assay [1] and over 35000 nM in assay [2].

On to `CCCS(=O)(=O)N1CCN(C2(CNC(=O)c3ccc(Cl)cc3Cl)CCCC2)CC1` [compound 72, 2,4-Dichloro-N-((1-(4-(propylsulfonyl)piperazin-1-yl)cyclopentyl)methyl) benzamide Hydrochloride], for which the IC50 is 171 nM in assay [1] and over 75000 nM in assay [2].

With `O=C(NCC1(N2CCN(S(=O)(=O)CC3CC3)CC2)CCCCC1)c1ccc(Cl)cc1Cl` [compound 84, 2,4-Dichloro-N-((1-(4-(cyclopropylmethyl-sulfonyl)piperazin-1-yl)cyclohexyl)methyl) benzamide Hydrochloride], the IC50 in assay [1] is 56 nM; in assay [2], over 75000 nM.

For `Cn1cnc(S(=O)(=O)N2CCN(C3(CNC(=O)c4c(F)cccc4F)CCOCC3)CC2)c1` [compound 124, 2,6-Difluoro-N-((4-(4-(1-methyl-1H-imidazol-4-ylsulfonyl)piperazin-1-yl)tetrahydro-2H-pyran-4-yl)methyl)benzamide Hydrochloride], the IC50 in assay [1] is 337 nM; in assay [2], over 75000 nM.

Take `Cn1cnc(S(=O)(=O)N2CCN(C3(CNC(=O)c4ccccc4Cl)CCC(F)(F)CC3)CC2)c1` [compound 160, 2-Chloro-N-((4,4-difluoro-1-(4-(1-methyl-1H-imidazol-4-ylsulfonyl)piperazin-1-yl)cyclohexyl)methyl) benzamide Hydrochloride]: the IC50 was 9 nM in assay [1] and over 75000 nM in assay [2].

For `Cn1cc(S(=O)(=O)N2CCN(C3(CNC(=O)c4ccc(Cl)cc4Cl)CCC(F)(F)CC3)CC2)nn1` [compound 228, 2,4-Dichloro-N-((4,4-difluoro-1-(4-(1-methyl-1H-l,2,3-triazol-4-ylsulfonyl)piperazin-1-yl)cyclohexyl)methyl) benzamide Hydrochloride], the IC50 in assay [1] is 1 nM; in assay [2], over 75000 nM.
